Data from US5472684A, “Oral compositions for plaque and gingivitis” (Colgate Palmolive Company, priority 1993, dated 1995).
Read-outs that look alike come from different tables or passages of the source.

Tests used:
Plaque [1] = assay: 4-day plaque regrowth in a clinical study in humans, plaque area; assay type: in vivo
Method: (§1) The efficacy of natural product rinse on the reduction of plaque was evaluated in a clinical study in humans. The study was randomized, blind, 3 cells cross-over design to measure the effects of each rinse on 4 day plaque growth from a zero baseline. […] On the other hand, 0.2% chlorhexidine rinse, clinically proven for plaque and gingivitis effect, inhibited 48.0% and 78.0% regrowth of plaque measured by score and area, respectively under similar conditions.

Plaque [2] = assay: 4-day plaque regrowth in a clinical study in humans, plaque score; assay type: in vivo
Method: as §1

Actinomyces viscosus = assay: MIC of natural flavoring agents vs. A. viscosus, standard serial dilution method; assay type: cell-based; conditions: for MIC: Actinomyces viscosus, read-out: Antibacterial Activity vs. A. viscosus MIC; for antibacterial activity against A. viscosus (in words): from MIC data of Table 1
Method: The antibacterial activities of a number of natural flavoring agents were evaluated against Actinomyces viscosus, a dental plaque bacterium, by measuring the minimum inhibitory concentration (hereinafter referred to as MIC) of the respective agents in vitro according to the standard serial dilution method delineated in N. Nabi et al., Am. J. Dent. 2: 197:206, 1989 which is incorporated herein by reference. The MIC is defined for the purpose of this invention to mean the concentration of a particular agent at which no bacterial growth was observed. The natural flavoring agents used were obtained from commercial sources available in organic or aqueous solvents. The antibacterial compound, Triclosan, was used as a positive Control. Triclosan is 2,4,4'-trichloro-2'-hydroxydiphenyl ether.

plaque and gingivitis = conditions: toothpaste and mouthrinse containing Triclosan, humans; cited from earlier work
[3] = system: bacterial plaque formation; assay: Chemostat Plaque Model in vitro (flow cell system, artificial mouth); assay type: cell-based; conditions: about 0.5 wt % eucalyptol or about 0.01 wt. % sage oil added to rinse (2)
Method: The effect of natural product rinse (2) to inhibit bacterial plaque formation in vitro was assessed using the Chemostat Plaque Model according to methods of A. Gaffar et al. described in Am. J. Dent., 3, p. S7-S14, 1990. This in vitro model simulates the actual saliva and tooth surface interactions with respect to the plaque formation in the mouth and assesses the interactions, at biophysical and surface chemical level, of saliva-coated bacteria to saliva-coated surfaces with a surface energy similar to dental enamel.

[4] = 4-day plaque regrowth, rinsed twice daily, fifteen volunteers
[5] = after 4 days, compared with 0.9% saline rinse, p < 0.001
[6] = in vitro, serial dilution, concentration at which no bacterial growth was observed

SMILES: [H]/N=C(\N/C(=N/[H])NCCCCCCNC(=N)NC(=N)Nc1ccc(Cl)cc1)Nc1ccc(Cl)cc1 [Chlorhexidine]
- Plaque Area (Plaque [1]; [4]): 0.069 +/- 0.055
- Plaque Reduction % (plaque area) (Plaque [1]; [5]): 78.0%
- Plaque Score (Plaque [2]; [4]): 0.128 +/- 0.068
- Plaque Reduction % (plaque score) (Plaque [2]; [5]): 48.0%

SMILES: C=CCc1ccc(O)c(OC)c1 [Eugenol]
- MIC (Actinomyces viscosus; [6]): 25 µg/mL
- antibacterial activity against A. viscosus (in words) (Actinomyces viscosus): most active

SMILES: CC(C)=CCCC(C)=CCCC(C)=CCO [Farnesol]
- MIC (Actinomyces viscosus; [6]): 25 µg/mL
- antibacterial activity against A. viscosus (in words) (Actinomyces viscosus): excellent antibacterial activity equivalent to thymol or eugenol
- antibacterial activity against A. viscosus (in words) (Actinomyces viscosus; listed as farnesol): most active

SMILES: Cc1ccc(C(C)C)c(O)c1 [Thymol]
- MIC (Actinomyces viscosus; [6]): 25 µg/mL
- antibacterial activity against A. viscosus (in words) (Actinomyces viscosus): most active

SMILES: Oc1cc(Cl)ccc1Oc1ccc(Cl)cc1Cl [Triclosan, 2,4,4'-trichloro-2'-hydroxydiphenyl ether, reference compound]
- MIC (Actinomyces viscosus): 5 µg/mL
- effect on plaque and gingivitis (in words) (plaque and gingivitis): reduce plaque and gingivitis

SMILES: CC12CCC(CC1)C(C)(C)O2 [eucalyptol]
- antiplaque activity on addition to natural product rinse (2) (in words) [3]: increases the antiplaque activity
